Among the data in ChEMBL document CHEMBL1135045, “alpha(1)-Adrenoceptor antagonists. Rational design, synthesis and biological evaluation of new trazodone-like compounds” (Bioorg Med Chem Lett, 2002) are Ki values, retold here.

Assay [1] has as its target T1, Adrenergic receptor alpha-2 (Rattus norvegicus, UniProt P22086+P19328+P22909).
T1 sequence (P22086 whole entry): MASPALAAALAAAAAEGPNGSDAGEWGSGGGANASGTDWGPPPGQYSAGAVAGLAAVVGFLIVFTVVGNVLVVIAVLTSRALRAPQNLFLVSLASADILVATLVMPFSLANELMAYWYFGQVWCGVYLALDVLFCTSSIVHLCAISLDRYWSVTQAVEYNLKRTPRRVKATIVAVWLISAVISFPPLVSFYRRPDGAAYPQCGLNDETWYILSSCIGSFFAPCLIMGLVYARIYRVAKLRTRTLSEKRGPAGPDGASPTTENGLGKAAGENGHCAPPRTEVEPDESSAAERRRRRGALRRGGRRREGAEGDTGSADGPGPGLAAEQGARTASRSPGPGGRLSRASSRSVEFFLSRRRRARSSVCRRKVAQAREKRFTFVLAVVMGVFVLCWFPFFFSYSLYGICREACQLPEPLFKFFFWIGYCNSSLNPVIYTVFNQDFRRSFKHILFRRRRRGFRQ
T1 sequence (P19328 whole entry): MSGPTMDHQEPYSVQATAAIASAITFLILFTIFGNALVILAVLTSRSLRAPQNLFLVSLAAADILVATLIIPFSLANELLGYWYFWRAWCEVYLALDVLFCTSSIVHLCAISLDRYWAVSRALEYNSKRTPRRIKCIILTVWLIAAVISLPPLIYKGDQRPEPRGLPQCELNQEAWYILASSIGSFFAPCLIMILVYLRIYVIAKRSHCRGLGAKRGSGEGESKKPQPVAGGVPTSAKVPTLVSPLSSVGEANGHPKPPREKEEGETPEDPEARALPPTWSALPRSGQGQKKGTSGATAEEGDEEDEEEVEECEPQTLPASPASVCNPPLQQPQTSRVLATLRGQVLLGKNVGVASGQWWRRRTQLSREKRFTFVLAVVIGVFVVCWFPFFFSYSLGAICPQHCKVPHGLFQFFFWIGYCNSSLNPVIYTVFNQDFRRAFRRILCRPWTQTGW
T1 sequence (P22909 whole entry): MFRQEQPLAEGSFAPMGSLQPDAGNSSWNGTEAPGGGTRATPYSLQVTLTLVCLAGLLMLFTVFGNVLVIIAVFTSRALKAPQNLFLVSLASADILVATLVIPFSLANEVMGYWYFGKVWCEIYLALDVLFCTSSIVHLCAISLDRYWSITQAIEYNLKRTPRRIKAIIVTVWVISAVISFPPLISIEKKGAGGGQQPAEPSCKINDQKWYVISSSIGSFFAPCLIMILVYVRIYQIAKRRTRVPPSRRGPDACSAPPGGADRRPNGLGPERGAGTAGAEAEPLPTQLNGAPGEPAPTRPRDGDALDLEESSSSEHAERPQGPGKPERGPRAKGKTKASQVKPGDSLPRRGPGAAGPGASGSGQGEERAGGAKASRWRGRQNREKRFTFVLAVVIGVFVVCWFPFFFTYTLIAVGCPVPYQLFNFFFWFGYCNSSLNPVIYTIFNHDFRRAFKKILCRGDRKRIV
In words: Binding affinity by its ability to displace [3H]rauwolscine radioligand from Alpha-2 adrenergic receptor on rat cerebral cortex. The assay is classed as tissue-based.

Assay [2] deals with T2, Adrenergic receptor alpha-1 (Rattus norvegicus, UniProt P15823+P23944+P43140).
T2 sequence (P15823 whole entry): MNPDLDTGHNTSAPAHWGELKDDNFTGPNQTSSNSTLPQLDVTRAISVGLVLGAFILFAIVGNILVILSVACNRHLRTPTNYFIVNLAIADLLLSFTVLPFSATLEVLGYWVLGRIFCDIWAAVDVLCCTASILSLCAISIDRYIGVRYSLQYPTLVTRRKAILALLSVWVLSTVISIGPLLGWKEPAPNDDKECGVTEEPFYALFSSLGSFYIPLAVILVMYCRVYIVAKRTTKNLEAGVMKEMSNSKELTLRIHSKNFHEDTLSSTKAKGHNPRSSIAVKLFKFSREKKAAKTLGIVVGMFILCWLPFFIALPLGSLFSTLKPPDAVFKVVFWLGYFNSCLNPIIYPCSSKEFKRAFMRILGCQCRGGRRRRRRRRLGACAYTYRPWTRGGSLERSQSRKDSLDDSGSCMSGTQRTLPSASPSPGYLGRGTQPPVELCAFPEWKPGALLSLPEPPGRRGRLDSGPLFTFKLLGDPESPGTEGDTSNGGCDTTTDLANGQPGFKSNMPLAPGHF
T2 sequence (P23944 whole entry): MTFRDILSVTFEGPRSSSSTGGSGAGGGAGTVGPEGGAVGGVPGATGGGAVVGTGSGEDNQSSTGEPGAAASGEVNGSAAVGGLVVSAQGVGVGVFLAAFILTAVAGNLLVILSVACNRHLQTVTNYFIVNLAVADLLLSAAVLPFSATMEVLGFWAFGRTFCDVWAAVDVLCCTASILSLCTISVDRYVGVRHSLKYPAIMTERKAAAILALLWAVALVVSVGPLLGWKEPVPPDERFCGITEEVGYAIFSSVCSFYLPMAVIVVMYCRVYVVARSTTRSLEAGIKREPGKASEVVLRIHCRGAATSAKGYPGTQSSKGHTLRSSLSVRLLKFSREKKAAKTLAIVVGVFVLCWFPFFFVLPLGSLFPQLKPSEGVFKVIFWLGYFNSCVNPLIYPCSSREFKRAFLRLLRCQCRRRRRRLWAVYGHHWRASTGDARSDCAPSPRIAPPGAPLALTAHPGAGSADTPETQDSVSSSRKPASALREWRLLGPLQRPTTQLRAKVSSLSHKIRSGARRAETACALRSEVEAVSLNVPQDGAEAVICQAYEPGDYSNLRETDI
T2 sequence (P43140 whole entry): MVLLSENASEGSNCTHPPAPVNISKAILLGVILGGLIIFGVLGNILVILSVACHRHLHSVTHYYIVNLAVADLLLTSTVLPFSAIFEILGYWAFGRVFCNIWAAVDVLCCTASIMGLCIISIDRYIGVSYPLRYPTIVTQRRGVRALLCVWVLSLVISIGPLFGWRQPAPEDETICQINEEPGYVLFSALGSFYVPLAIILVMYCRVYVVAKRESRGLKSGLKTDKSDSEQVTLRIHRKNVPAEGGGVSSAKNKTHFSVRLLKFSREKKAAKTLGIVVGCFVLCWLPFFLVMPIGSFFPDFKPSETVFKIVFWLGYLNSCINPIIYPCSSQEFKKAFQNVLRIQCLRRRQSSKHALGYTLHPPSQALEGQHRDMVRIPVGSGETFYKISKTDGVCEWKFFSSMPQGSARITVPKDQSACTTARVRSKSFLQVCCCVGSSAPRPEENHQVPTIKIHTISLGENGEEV
Kind of assay: Binding affinity by its ability to displace [3H]prazosin radioligand from Alpha-1 adrenergic receptor on rat cerebral cortex. It counts as tissue-based.

As usually defined, the Ki is the dissociation constant of the complex between target and ligand, obtained from inhibition or displacement. A low value points to tighter binding. As to `COc1ccccc1N1CCN(CCCn2nc(-n3ccnc3)ccc2=O)CC1`, the Ki is given as 673.4 nM in assay [1] and 115.4 nM in assay [2].

With `O=c1ccc(-n2cnc3ccccc32)nn1CCCN1CCN(c2ccccc2Cl)CC1`, the inhibition constant Ki in assay [1] is listed as 44.7 nM; in assay [2], 15.2 nM.

For the compound `O=c1ccc(-n2ccnc2)nn1CCCN1CCN(c2ccccc2Cl)CC1`, the inhibition constant (Ki) is reported as 436.6 nM in assay [1] and 48.3 nM in assay [2].

For the compound `COc1ccccc1N1CCN(CCCCn2nc(-n3cnc4ccccc43)ccc2=O)CC1`, the values for the inhibitory constant (Ki) in assay [1] and in assay [2] were 16 nM and 1.1 nM, respectively.

On to `COc1ccccc1N1CCN(CCCn2nc(-n3cnc4ccccc43)ccc2=O)CC1`, for which the Ki in assay [1] was found to be 158.3 nM; in assay [2] it was 6.5 nM.
